# What was measured:
# [1] = type: physicochemical; details: 10 mg/ml, after storing at 5 °C
# Text: The salts of th present invention allow one to prepare solutions of m-AMSA without the aid of dimethylacetamide. Depending upon the salt, concentration and temperature,standing may result in certain of the solutions of salts forming gels. However, a salt need only remain in solution for a period long enough for it to be administered to a patient.
# [2] = system: mice; details: literature (Cain et al.); cited from earlier work
SMILES,Return of gelled solution to fluid state by warming to room temperature and shaking [1],Activity in treating mammals in studies using mice [2]
"COc1cc(NS(C)(=O)=O)ccc1Nc1c2ccccc2nc2ccccc12 [gluconate, 4'-(9-acridinylamino)methanesulfon-m-anisidide D-gluconate]",this could not be achieved,–
"COc1cc(NS(C)(=O)=O)ccc1Nc1c2ccccc2nc2ccccc12 [m-AMSA, 4'-(9-acridinylamino)-methanesulfon-m-anisidide]",–,high degree of activity

# Source: patent US4399283A, “Pharmaceutical salts of 4'-(9-acridinylamino)-methanesulfon-m-anisidide” (Warner Lambert Company, priority 1981, dated 1983)
